According to ChEMBL document CHEMBL1141237, “Synthesis and activity of N-acyl azacyclic urea HIV-1 protease inhibitors with high potency against multiple drug resistant viral strains” (Bioorg Med Chem Lett, 2005):

Tests used:
[1] = molecular target: Human immunodeficiency virus type 1 protease (Human immunodeficiency virus 1) (UniProt Q72874); assay: Inhibitory activity against HIV1 protease at 0.5 uM
[2] = test system: Human immunodeficiency virus 1; assay: Antiviral activity against HIV1 in the absence of human serum; format: functional, organism-based
[3] = test system: Human immunodeficiency virus 1; assay: Antiviral activity against HIV1 in the presence of 50% human serum; format: functional, organism-based
[4] = test system: Human immunodeficiency virus; assay: Antiviral activity against Lopinavir resistant HIV A17 mutant strain; format: functional, organism-based; details: Human immunodeficiency virus 1, A17
[5] = test system: Human immunodeficiency virus; assay: Antiviral activity against indinavir resistant HIV IND-R mutant strain; format: functional, organism-based; details: Human immunodeficiency virus 1, IND-R
[6] = molecular target: Human immunodeficiency virus type 1 protease (Human immunodeficiency virus 1, UniProt Q72874); assay: Inhibitory activity against HIV1 protease
[7] = molecular target: Human immunodeficiency virus type 1 protease (Human immunodeficiency virus 1) (UniProt Q72874); assay: Inhibitory activity against HIV1 protease at 1 uM

SMILES | inhibition [1] [%] | EC50 [2] [µM] | EC50 [3] [µM] | EC50 [4] [µM] | EC50 [5] [µM] | IC50 [6] [µM] | inhibition [7] [%]
COc1cccc(CCC(=O)N2C[C@@H](O)[C@@H](Cc3ccccc3)N(Cc3ccc(O)c(OC)c3)C(=O)N2Cc2ccc(O)c(OC)c2)c1 | 67 | 0.004 | 0.062 |  |  |  | 
COc1cc(CN2C(=O)N(Cc3ccc(O)c(OC)c3)N(C(=O)CCc3ccccc3)C[C@@H](O)[C@H]2Cc2ccccc2)ccc1O | 55 | 0.004 | 0.028 | 0.102 | 0.049 |  | 
COc1cc(CN2C(=O)N(Cc3ccc(O)c(OC)c3)N(C(=O)CCc3ccc4c(c3)OCO4)C[C@@H](O)[C@H]2Cc2ccccc2)ccc1O | 73 | 0.004 | 0.056 | 0.065 | 0.054 |  | 
COc1cc(CN2C(=O)N(Cc3ccc(O)c(OC)c3)N(C(=O)CN3CCNCC3)C[C@@H](O)[C@H]2Cc2ccccc2)ccc1O |  | 1.49 | 3.22 |  |  | 0.0061 | 
COc1cc(CN2C(=O)N(Cc3ccc(O)c(OC)c3)N(C(=O)CC(C)C)C[C@@H](O)[C@H]2Cc2ccccc2)ccc1O | 73 | 0.009 | 0.027 | 0.586 | 0.094 |  | 
Nc1[nH]nc2ccc(CN3C(=O)N(Cc4ccccc4)[C@H](Cc4ccccc4)[C@H](O)CN3C(=O)CCc3ccccc3)cc12 | 48 | 0.05 |  | 0.897 | 0.102 |  | 
COc1cc(CN2C(=O)N(Cc3ccc(O)c(OC)c3)N(C(=O)CCCc3cccs3)C[C@@H](O)[C@H]2Cc2ccccc2)ccc1O | 64 | 0.004 | 0.056 |  |  |  | 
COc1cc(CN2C(=O)N(Cc3ccc(O)c(OC)c3)N(C(=O)CCc3cccnc3)C[C@@H](O)[C@H]2Cc2ccccc2)ccc1O | 58 | 0.054 | 0.353 |  |  |  | 
CC(C)CC(=O)N1C[C@@H](O)[C@@H](Cc2ccccc2)N(Cc2cccc(N)c2)C(=O)N1Cc1cccc(N)c1 | 66 | 0.037 |  | 2.07 |  |  | 
O=C(CCc1ccccc1)N1C[C@@H](O)[C@@H](Cc2ccccc2)N(Cc2ccccc2)C(=O)N1Cc1ccc2[nH]ncc2c1 | 66 | 0.045 |  | 1.07 | 0.821 |  | 
COc1cc(CN2C(=O)N(Cc3ccc(O)c(OC)c3)N(Cc3ccccc3)C[C@@H](O)[C@H]2Cc2ccccc2)ccc1O | 81 | 0.004 | 0.029 |  |  |  | 
COc1cc(CN2C(=O)N(Cc3ccc(O)c(OC)c3)N(C(=O)COc3ccccc3)C[C@@H](O)[C@H]2Cc2ccccc2)ccc1O | 53 | 0.929 | 5.15 |  |  |  | 
COc1cc(CN2C(=O)N(Cc3ccc(O)c(OC)c3)N(C(=O)CCc3ccncc3)C[C@@H](O)[C@H]2Cc2ccccc2)ccc1O |  | 0.212 | 0.546 |  |  | 0.0012 | 
COc1cc(CN2C(=O)N(Cc3ccc(N)c(OC)c3)N(C(=O)CCc3ccccc3)C[C@@H](O)[C@H]2Cc2ccccc2)ccc1N | 88 | 0.053 |  | 0.464 | 0.504 |  | 
COc1ccc(CCC(=O)N2C[C@@H](O)[C@@H](Cc3ccccc3)N(Cc3ccc(O)c(OC)c3)C(=O)N2Cc2ccc(O)c(OC)c2)cc1 | 67 | 0.006 | 0.048 | 0.133 | 0.088 |  | 
COc1cc(CN2C(=O)N(Cc3ccc(O)c(OC)c3)N(C(=O)CCCc3ccccc3)C[C@@H](O)[C@H]2Cc2ccccc2)ccc1O | 75 | 0.005 | 0.027 |  |  |  | 
COc1cc(CN2C(=O)N(Cc3ccc(O)c(OC)c3)N(C(=O)CCCCN3CCOCC3)C[C@@H](O)[C@H]2Cc2ccccc2)ccc1O |  | 0.086 | 0.48 | > 10 | 1.04 | 0.0021 | 

SMILES | inhibition [1] [%] | EC50 [2] [µM] | EC50 [3] [µM] | EC50 [4] [µM] | EC50 [5] [µM] | IC50 [6] [µM] | inhibition [7] [%]
COc1cc(CN2C(=O)N(Cc3ccc(O)c(OC)c3)N(C(=O)CCc3ccoc3)C[C@@H](O)[C@H]2Cc2ccccc2)ccc1O | 68 | 0.009 | 0.018 | 0.562 | 0.227 |  | 
COc1cc(CN2C(=O)N(Cc3ccc(O)c(OC)c3)N(C(=O)CCc3ccco3)C[C@@H](O)[C@H]2Cc2ccccc2)ccc1O | 73 | 0.003 | 0.016 | 0.455 | 0.081 |  | 
CC(C)CC(=O)N1C[C@@H](O)[C@@H](Cc2ccccc2)N(Cc2ccc(O)cc2)C(=O)N1Cc1ccc(O)cc1 | 65 | 0.03 |  | 0.312 | 0.171 |  | 
Cc1cccc(C)c1OCC(=O)N[C@@H](Cc1ccccc1)[C@@H](O)C[C@H](Cc1ccccc1)NC(=O)[C@H](C(C)C)N1CCCNC1=O [LOPINAVIR] |  | 0.016 | 0.067 | 1.06 | 0.385 |  | 
Nc1cccc(CN2C(=O)N(Cc3ccc4[nH]ncc4c3)N(C(=O)CCc3ccccc3)C[C@@H](O)[C@H]2Cc2ccccc2)c1 | 74 | 0.013 |  | 0.098 | 0.023 |  | 
N/C(=N/O)c1cccc(CN2C(=O)N(Cc3ccccc3)N(C(=O)CCc3ccccc3)C[C@@H](O)[C@H]2Cc2ccccc2)c1 | 73 | 0.045 |  | 2.02 |  |  | 
COc1cc(CN2C(=O)N(Cc3ccc(O)c(OC)c3)N(C(=O)CC3CCCC3)C[C@@H](O)[C@H]2Cc2ccccc2)ccc1O | 66 | 0.003 | 0.06 | 0.367 | 0.132 |  | 
COc1cc(CN2C(=O)N(Cc3ccc(O)c(OC)c3)N(C(=O)CCc3ccc(F)cc3)C[C@@H](O)[C@H]2Cc2ccccc2)ccc1O | 67 | 0.004 | 0.028 | 0.189 | 0.164 |  | 
COc1cc(CN2C(=O)N(Cc3ccc(O)c(OC)c3)N(C(=O)CCc3ccc(O)cc3)C[C@@H](O)[C@H]2Cc2ccccc2)ccc1O | 73 | 0.061 | 0.165 |  |  |  | 
COc1cc(CN2C(=O)N(Cc3ccc(O)c(OC)c3)N(C(=O)CCCC3CCCO3)C[C@@H](O)[C@H]2Cc2ccccc2)ccc1O (some centres not stated) | 76 | 0.009 | 0.077 |  |  |  | 
COc1cc(CN2C(=O)N(Cc3ccc(O)c(OC)c3)N(C(=O)CN3CCCC3)C[C@@H](O)[C@H]2Cc2ccccc2)ccc1O |  | 0.572 | 0.49 |  |  | 0.0079 | 
CC(C)c1nc(CN(C)C(=O)N[C@H](C(=O)N[C@@H](Cc2ccccc2)C[C@H](O)[C@H](Cc2ccccc2)NC(=O)OCc2cncs2)C(C)C)cs1 [RITONAVIR] |  | 0.022 | 0.483 | 1.24 |  |  | 
CC(C)CC(=O)N1C[C@@H](O)[C@@H](Cc2ccccc2)N(Cc2ccc(N)cc2)C(=O)N1Cc1ccc(N)cc1 |  | 0.15 |  |  |  |  | 56
O=C(CCc1ccccc1)N1C[C@@H](O)[C@@H](Cc2ccccc2)N(Cc2ccc(O)cc2)C(=O)N1Cc1ccc(O)cc1 | 76 | 0.017 |  | 0.192 | 0.014 |  | 
COc1cc(CN2C(=O)N(Cc3ccc(O)c(OC)c3)N(C(=O)CCc3ccc(OC)c(OC)c3)C[C@@H](O)[C@H]2Cc2ccccc2)ccc1O | 72 | 0.015 | 0.047 |  |  |  | 
N/C(=N/O)c1cccc(CN2C(=O)N(Cc3ccc4[nH]ncc4c3)N(C(=O)CCc3ccccc3)C[C@@H](O)[C@H]2Cc2ccccc2)c1 | 90 | 0.074 |  | 0.084 | 0.058 |  | 
COc1cc(CN2C(=O)N(Cc3ccc(O)c(OC)c3)N(C(=O)CCCN3CCOCC3)C[C@@H](O)[C@H]2Cc2ccccc2)ccc1O |  | 0.308 | 0.576 |  |  | 0.0038 | 
